From patent publication US20190241569A1, “3-(ARYL OR HETEROARYL) METHYLENEINDOLIN-2-ONE DERIVATIVES AS INHIBITORS OF CANCER STEM CELL PATHWAY KINASES FOR THE TREATMENT OF CANCER” (Boston Biomedical, Inc., priority 2013, published 2019)

Columns and labels:
Format in all cases: cell-based
ACHN = experiment: Bulk cancer cells, Cell Titer-Glo 72 hours (Test Example 2); details: Homo sapiens, ACHN, 72 h
Protocol: (§1) Tubes of 3× drug (60 uM in 500 uL complete media) were prepared from 5 mM stock solutions in DMSO. […] To treat cells, 50 uL of drug from the dilution plate was removed and added to the cell plates. […] Cells were harvested 72 hours after drug addition using Cell Titer-Glo (Promega) and luminescence measured on a plate reader.

FaDu = experiment: as above; details: Homo sapiens
Protocol: as §1

FaDu CSC = experiment: Cancer stem cells, Cell Titer-Glo 72 hours (Test Example 3); details: Homo sapiens, FaDu, 72 h

Structure (SMILES)	IC50 (ACHN) [µM]	IC50 (FaDu) [µM]	IC50 (FaDu CSC) [µM]
CCN(CC)CCNC(=O)c1c(C)[nH]c(/C=C2\C(=O)Nc3ccc(-c4cnc(-c5ccccc5)[nH]4)cc32)c1C [Example 41]	20.6	5.34	
Cc1[nH]c(/C=C2\C(=O)Nc3ccc(-c4cnc(-c5ccccc5)o4)cc32)c(C)c1C(=O)N1CCN(C)CC1 [Example 18]		12.1	9.35
Cc1[nH]c(/C=C2\C(=O)Nc3ccc(-c4csc(-c5ccncc5)n4)cc32)c(C)c1CCC(=O)O [Example 154]	14.6		
Cc1[nH]c(/C=C2\C(=O)Nc3ccc(-c4ncc(-c5ccccc5)o4)cc32)c(C)c1C(=O)N1CCN(C)CC1 [Example 20]			2.38
CCN(CC)CCNC(=O)c1c(C)[nH]c(/C=C2\C(=O)Nc3ncc(-c4csc(-c5ccccc5)n4)cc32)c1C [Example 116]			1.6
CCN(CC)CCNC(=O)c1[nH]c(/C=C2\C(=O)Nc3ccc(-c4csc(-c5ccccc5)n4)cc32)c2c1CCCC2 [Example 166]	9.91		
CCN(CC)CCNC(=O)c1c(C)[nH]c(/C=C2\C(=O)Nc3ccc(-c4csc(-c5ccc(Br)cc5)n4)cc32)c1C [Example 125]		3.68	1.33
CCN(CC)CCNC(=O)c1c(C)[nH]c(/C=C2\C(=O)Nc3ccc(C4CCN(c5ncccn5)CC4)cc32)c1C [Example 43]		6.47	18.8
O=C1Nc2ccc(-c3csc(-c4ccccc4)n3)cc2/C1=C/c1ccc(N2CCOCC2)cc1 [Example 172]		35.5	
CCN(CC)CCNC(=O)c1c(C)[nH]c(/C=C2\C(=O)Nc3ccc(-c4nc(-c5ccccc5)n[nH]4)cc32)c1C [Example 50]		6.16	2.8
O=C1Nc2ccc(-c3csc(-c4ccccc4)n3)cc2/C1=C/c1cc2ccccc2[nH]1 [Example 159]		49.3	
CC(=O)N1CCC(N2CCC(c3ccc4c(c3)/C(=C/c3[nH]c(C)c(C(=O)N5CCN(C)CC5)c3C)C(=O)N4)CC2)CC1 [Example 46]		23.2	15.6
Cc1[nH]c(/C=C2\C(=O)Nc3ccc(-c4cnc(-c5ccccc5)[nH]4)cc32)c(C)c1C(=O)N1CCN(C)CC1 [Example 44]		5.54	13.2
CCN(CC)CCNC(=O)c1c(C)[nH]c(/C=C2\C(=O)Nc3ccc(-c4csc(-c5ccccn5)n4)cc32)c1C [Example 124]		46.9	
Cc1cc(C)c(/C=C2\C(=O)Nc3cc(-c4ccc5ccccc5n4)ccc32)[nH]1 [Example 248]		14	
Cc1[nH]c(/C=C2\C(=O)Nc3ncc(-c4csc(-c5ccccc5)n4)cc32)c(C)c1C(=O)N1CCN(C)CC1 [Example 117]		39.2	
CCN(CC)CCNC(=O)c1c(C)[nH]c(/C=C2\C(=O)Nc3ccc(-c4cnc(-c5ccccc5)s4)cc32)c1C [Example 54]		23.7	
Cc1cc(C)c(/C=C2\C(=O)Nc3cc(-c4cnc5ccnn5c4)ccc32)[nH]1 [Example 243]			14.9
CCN(CC)CCNC(=O)c1c(C)[nH]c(/C=C2\C(=O)Nc3ccc(-c4cs/c(=N\c5ccccc5)n4C)cc32)c1C [Example 132]		5.35	2.17
CCN(CC)CCNC(=O)c1c(C)[nH]c(/C=C2\C(=O)Nc3ccc(-c4csc(-c5cccc(Br)c5)n4)cc32)c1C [Example 127]		24.8	7.82
Cc1cc(C)c(/C=C2\C(=O)Nc3ccc(-c4ccc5ccccc5n4)cc32)[nH]1 [Example 214]	7.44		
O=C1Nc2ccc(-c3csc(-c4ccncc4)n3)cc2/C1=C/c1ccc(N2CCOCC2)cc1 [Example 173]		17.5	
Cc1[nH]c(/C=C2\C(=O)Nc3ccc(-c4cnn(-c5ccccc5)c4C)cc32)c(C)c1C(=O)N1CCOCC1 [Example 13]		6.76	37.2

Structure (SMILES)	IC50 (ACHN) [µM]	IC50 (FaDu) [µM]	IC50 (FaDu CSC) [µM]
Cc1[nH]c(/C=C2\C(=O)Nc3ccc(-c4ccc(-c5ccccc5)s4)cc32)c(C)c1C(=O)NCCN1CCCC1 [Example 14]		4.44	1.64
Cc1cc(C)c(/C=C2\C(=O)Nc3cc(-c4ccc(-c5ccccc5)nc4)ccc32)[nH]1 [Example 241]			18.2
Cc1cc(C)c(/C=C2\C(=O)Nc3cc(-c4cccc(C#N)c4C)ccc32)[nH]1 [Example 245]			39.1
Cc1[nH]c(/C=C2\C(=O)Nc3ccc(-c4ccnn4-c4ccc(C#N)cc4)cc32)c(C)c1C(=O)N1CCN(C)CC1 [Example 24]			48.2
CCN(CC)CCNC(=O)c1c(C)[nH]c(/C=C2\C(=O)Nc3ccc(-c4ccnn4-c4ccc(C#N)cc4)cc32)c1C [Example 25]		17.3	4.96
Cc1[nH]c(/C=C2\C(=O)Nc3ccc(-c4cnn(-c5ccccc5)c4C)cc32)c(C)c1C(=O)N1CCN(C)CC1 [Example 5]			14.8
CN1CCN(C(=O)c2ccc(/C=C3\C(=O)Nc4ccc(-c5csc(-c6ccccc6)n5)cc43)[nH]c2=O)CC1 [Example 122]			23.2
CCOC(=O)CCc1ccc(-c2nc(-c3ccc4c(c3)/C(=C/c3[nH]c(C)c(C(=O)NCCN(CC)CC)c3C)C(=O)N4)cs2)cc1 [Example 136]			2.52
CCN(CC)CCNC(=O)c1c(C)[nH]c(/C=C2\C(=O)Nc3cc(-c4ccc5cn[nH]c(=O)c5c4)ccc32)c1C [Example 252]		23.9	
Cc1[nH]c(/C=C2\C(=O)Nc3ccc(-c4cnn(-c5ccccn5)c4)cc32)c(C)c1C(=O)N1CCOCC1 [Example 30]			8.94
CCN(CC)CCNC(=O)c1c(C)[nH]c(/C=C2\C(=O)Nc3ccc(-c4nnc(-c5ccccc5)o4)cc32)c1C [Example 53]		8.23	21.5
O=C1Nc2ccc(-c3csc(-c4ccccc4)n3)cc2/C1=C/c1ccc(C(=O)NCCN2CCOCC2)c(=O)[nH]1 [Example 123]			33.7
Cc1[nH]c(/C=C2\C(=O)Nc3ccc(-c4ccnn4-c4ccccc4)cc32)c(C)c1C(=O)N1CCN(C)CC1 [Example 23]		4.55	11.5
CCN(CC)CCNC(=O)c1c(C)[nH]c(/C=C2\C(=O)Nc3ccc(-c4oc(-c5ccccc5)nc4C)cc32)c1C [Example 34]			18.2
Cc1[nH]c(/C=C2\C(=O)Nc3ccc(-c4cnn(-c5ccccc5)c4C)cc32)c(C)c1C(=O)NCCN1CCCC1 [Example 28]		5.79	1.31
CCN(CC)CCNC(=O)c1c(C)[nH]c(/C=C2\C(=O)Nc3cnc(-c4csc(-c5ccccc5)n4)cc32)c1C [Example 120]		11.2	4.75
COc1cccnc1-c1ccc2c(c1)/C(=C/c1[nH]c(C)cc1C)C(=O)N2 [Example 222]		33.2	
CCN(CC)CCNC(=O)c1c(C)[nH]c(/C=C2\C(=O)Nc3ccc(C4CCN(C5CCOCC5)CC4)cc32)c1C [Example 12]		23.9	
Cc1[nH]c(/C=C2\C(=O)Nc3ccc(-c4csc(C5CCNCC5)n4)cc32)c(C)c1C(=O)O [Example 142]			5.62
CCOC(=O)c1c(C)[nH]c(/C=C2\C(=O)Nc3ccc(-c4csc(-c5ccccc5)n4)cc32)c1C [Example 108]			20.2
Cc1ccc(-c2nc(-c3ccc4c(c3)/C(=C/c3[nH]c(C)c(C(=O)N5CCOCC5)c3C)C(=O)N4)cs2)cc1 [Example 105]		3.05	
CCOC(=O)CCc1cccc(-c2nc(-c3ccc4c(c3)/C(=C/c3[nH]c(C)c(C(=O)NCCN(CC)CC)c3C)C(=O)N4)cs2)c1 [Example 134]			2.34
O=C1Nc2ccc(-c3csc(-c4ccncc4)n3)cc2/C1=C/c1cc2ccccc2[nH]1 [Example 158]			3.07
